One data set relates to H460 NSCLC cancer cells. Kind of data set: H460 pleural cavity metastatic tumor model. The format is in vivo, mice. To be noted: TH302 alone Q3D×5, 100 mg/kg, i.v. As to the method: Metastatic tumors were also grown in mice by injecting H460 NSCLC cancer cells into the pleural cavity. Metastases were observed among other organs in the lungs and ovary. […] Thus, TH302 is effective in treatment of metastatic tumors, when administered alone and in combination with another anti cancer agent.

Data set [1] in a line: Pharmacokinetics in beagle dogs (20 mg/kg i.v.). The class given is in vivo. The conditions noted are these: dog, plasma, iv. The method, then: (§1) Pharmacokinetic studies were performed in male CD-1 (50 mg/kg i.p. or orally (p.o.)) or female nude mice (50 mg/kg i.v. or i.p.), male Sprague-Dawley rats (1, 5, 20 and 50 mg/kg i.v. and 100 mg/kg, p.o.), beagle dogs (20 mg/kg, i.v.) and cynomologus monkeys (20 mg/kg i.v.). Plasma TH302 concentrations were analyzed using a LC/MS method and the pharmacokinetic parameters computed using a noncompartmental method. Interspecies scaling was performed according to standard methods.

A short description of data set [2]: Interspecies scaling (complex Dedrick analysis). To be noted: 70-kg human. The method, then: as §1
Parts A, B, and C, below tabulate the pharmacokinetics of TH302 when administered to rats, Dogs, and monkeys.

The text below walks through data of patent US8552048B2, “Phosphoramidate alkylator prodrugs for the treatment of cancer” (Threshold Pharmaceuticals, Inc., priority 2006, dated 2013).

Consider `Cn1c(COP(=O)(NCCBr)NCCBr)cnc1[N+](=O)[O-]` [TH302], for which the metastatic tumor mass result in the data set on H460 NSCLC cancer cells was “visible reduction in metastatic tumor mass”. Besides, in data set [1] (read-out: Mean t1/2), the half-life stood at 49.2 min. The clearance in data set [1] (read-out: mean Cl (converted)) was 54.7 mL/min/kg. The Vd in data set [1] (read-out: mean Vss) is 1.98 L/kg. Moreover, in data set [2], the “predicted Cl” value was 109 L/h and the “predicted Vss” value is 493 L.
